Data reported in patent US9023789B2, “Amylin analogs and pharmaceutical compositions thereof” (Novo Nordisk A/S, priority 2012, dated 2015).
Converted amounts (≈) assume the structure as drawn. Where two headings read alike, the source gives them in different places. Numbered stars: 1 amine (or outer) side, 2 acyl side, 3 side chain; on linkers, the order of the positions; unused ones are H or OH. Bridge positions count the residues as written; N and C are the ends. Side chains are listed from the residue outwards. Peptide text beside a SMILES is read from it. * marks the point of attachment. C20 diacid = O=C(O)CCCCCCCCCCCCCCCCCCC(=O)*; γGlu = O=C(O)[C@H](CCC(=O)[*:2])N[*:1]; AEEA = NCCOCCOCC(=O)O

Experiments:
[1] = test system: Sprague Dawley (SD) rats; assay: ASSAY (I) efficacy testing on appetite (food intake) using an ad libitum fed rat model; assay type: in vivo; details: rat, 30 nmol/kg
Procedure, shortened: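 Individual food consumption was logged each hour up to 7 h and again at 24 h, occasionally 48 h, with Grubbs-test outliers removed. Each 200–250 g Sprague Dawley rat, free-feeding in its home cage under reversed lighting, received a single ip, po or sc dose of 0.01–3 mg/kg at lights-off, alongside a vehicle group.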

[2] = target: T1, rat calcitonin receptor (Rattus norvegicus, UniProt P32214); assay: ASSAY (VIII) binding to the rat calcitonin receptor; details: Table 7, read-out: rCTR bind IC50
T1 construct: expressed in transfected cells; host or cells: BHK tk'ts 13 (transient, FuGENE 6), membranes
T1 sequence (P32214 25-479 isoform P32214-2 limits assumed): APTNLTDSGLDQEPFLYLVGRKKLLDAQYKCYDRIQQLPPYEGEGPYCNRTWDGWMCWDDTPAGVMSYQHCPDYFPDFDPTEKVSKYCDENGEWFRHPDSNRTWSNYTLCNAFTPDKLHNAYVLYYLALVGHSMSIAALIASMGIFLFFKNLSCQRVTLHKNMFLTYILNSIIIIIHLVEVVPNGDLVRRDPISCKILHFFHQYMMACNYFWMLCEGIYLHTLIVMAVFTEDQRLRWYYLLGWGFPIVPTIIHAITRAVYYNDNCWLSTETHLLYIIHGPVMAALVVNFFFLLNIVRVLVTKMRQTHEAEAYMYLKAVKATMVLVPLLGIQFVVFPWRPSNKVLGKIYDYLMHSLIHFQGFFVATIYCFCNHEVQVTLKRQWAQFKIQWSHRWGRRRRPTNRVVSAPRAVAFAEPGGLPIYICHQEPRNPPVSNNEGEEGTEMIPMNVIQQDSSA
Procedure, shortened: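 Cell membranes for binding came from BHK tk′ts 13 cells harvested approximately 48 hours after transient transfection with the rat receptor.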

[3] = ASSAY (IV) determination of solubility; assay type: physicochemical
Procedure, shortened: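 Samples of polypeptide, prepared from a water stock at […] and diluted 1:1 into 100 mM buffers spanning pH 3.0 to 8.0, stood 18 hours at room temperature. Polypeptide concentration was then determined by UPLC following centrifugation.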

[4] = bistrispropane buffer, pH 6.5, read-out: Solubility pH 6.5 Concentration
[5] = bistrispropane buffer, pH 7.5, read-out: Solubility pH 7.5 Concentration
[6] = bistrispropane buffer, pH 6.0, read-out: Solubility pH 6.0 Concentration
[7] = bistrispropane buffer, pH 7.0, read-out: Solubility pH 7.0 Concentration
[8] = bistrispropane buffer, pH 8.0, read-out: Solubility pH 8.0 Concentration
[9] = glycylglycine buffer, pH 3.0, read-out: Solubility pH 3.0 Concentration
[10] = glycylglycine buffer, pH 4.0, read-out: Solubility pH 4.0 Concentration
[11] = glycylglycine buffer, pH 5.0, read-out: Solubility pH 5.0 Concentration

| Compound | Food intake reduction 0-24 h 30 nmol/kg (%) [1] | Food intake reduction 24-48 h 30 nmol/kg (%) [1] | IC50 [2] | solubility at 18 h [3, 4] | solubility at 18 h [3, 5] | solubility at 18 h [3, 6] | solubility at 18 h [3, 7] | solubility at 18 h [3, 8] | solubility at 18 h [3, 9] | solubility at 18 h [3, 10] | solubility at 18 h [3, 11] |
| --- | --- | --- | --- | --- | --- | --- | --- | --- | --- | --- | --- |
| CC[C@H](C)[C@H](NC(=O)[C@H](C)NC(=O)CNC(=O)[C@H](Cc1ccccc1)NC(=O)[C@H](CC(N)=O)NC(=O)[C@@H]1CCCN1C(=O)[C@H](CO)NC(=O)[C@H](CO)NC(=O)[C@H](Cc1c[nH]cn1)NC(=O)[C@H](CCCNC(=N)N)NC(=O)[C@H](CC(C)C)NC(=O)[C@H](Cc1ccccc1)NC(=O)[C@H](CCCNC(=N)N)NC(=O)[C@H](C)NC(=O)[C@H](CC(C)C)NC(=O)[C@H](CCCNC(=N)N)NC(=O)[C@H](CCC(N)=O)NC(=O)[C@@H](NC(=O)[C@H](C)NC(=O)[C@@H]1CSSC[C@H](NC(=O)[C@@H](N)CCCCNC(=O)COCCOCCNC(=O)CC[C@H](NC(=O)CCCCCCCCCCCCCCCCCCC(=O)O)C(=O)O)C(=O)N[C@@H](CC(N)=O)C(=O)N[C@@H]([C@@H](C)O)C(=O)N[C@@H](C)C(=O)N[C@@H]([C@@H](C)O)C(=O)N1)[C@@H](C)O)C(=O)N1CCC[C@H]1C(=O)N[C@@H](CO)C(=O)N[C@@H](CO)C(=O)N[C@H](C(=O)N1CCC[C@H]1C(=O)N[C@H](C(=O)NCC(=O)N[C@@H](CO)C(=O)N[C@@H](CC(N)=O)C(=O)N[C@H](C(=O)N[C@@H](Cc1ccc(O)cc1)C(N)=O)[C@@H](C)O)C(C)C)[C@@H](C)O [Example 64] (H-K([AEEA-γGlu-C20 diacid])CNTATCATQRLARFLRHSSPNFGAIPSSTPVGSNTY-NH2; disulfide 2-7; N-terminus assumed) | 4% | 3% | 128 nM | ≥ 200 µM | ≥ 200 µM | ≥ 200 µM | ≥ 200 µM | ≥ 200 µM | ≥ 200 µM | ≥ 200 µM | ≥ 200 µM |
| CC[C@H](C)[C@H](NC(=O)[C@H](C)NC(=O)CNC(=O)[C@H](Cc1ccccc1)NC(=O)[C@H](CC(N)=O)NC(=O)[C@@H]1CCCN1C(=O)[C@H](CO)NC(=O)[C@H](CO)NC(=O)[C@H](Cc1c[nH]cn1)NC(=O)[C@H](CCCNC(=N)N)NC(=O)[C@H](CC(C)C)NC(=O)[C@H](Cc1ccccc1)NC(=O)[C@H](CCCNC(=N)N)NC(=O)[C@H](C)NC(=O)[C@H](CC(C)C)NC(=O)[C@H](CCCNC(=N)N)NC(=O)[C@H](CCC(N)=O)NC(=O)[C@@H](NC(=O)[C@H](C)NC(=O)[C@@H]1CSSC[C@H](NC(=O)[C@@H](N)CCCCNC(=O)CC[C@H](NC(=O)CCCCCCCCCCCCCCCCCCC(=O)O)C(=O)O)C(=O)N[C@@H](CC(N)=O)C(=O)N[C@@H]([C@@H](C)O)C(=O)N[C@@H](C)C(=O)N[C@@H]([C@@H](C)O)C(=O)N1)[C@@H](C)O)C(=O)N1CCC[C@H]1C(=O)N[C@@H](CO)C(=O)N[C@@H](CO)C(=O)N[C@H](C(=O)N[C@@H](CC(N)=O)C(=O)N[C@H](C(=O)NCC(=O)N1CCC[C@H]1C(=O)N[C@@H](CC(N)=O)C(=O)N[C@H](C(=O)N[C@@H](Cc1ccc(O)cc1)C(N)=O)[C@@H](C)O)C(C)C)[C@@H](C)O [Example 65] (H-K([γGlu-C20 diacid])CNTATCATQRLARFLRHSSPNFGAIPSSTNVGPNTY-NH2; disulfide 2-7 (inferred); N-terminus assumed) | 10% | 0% | 108 nM | ≥ 200 µM | ≥ 200 µM | ≥ 200 µM | ≥ 200 µM | ≥ 200 µM | ≥ 200 µM | ≥ 200 µM | ≥ 200 µM |
| CC[C@H](C)[C@H](NC(=O)[C@H](C)NC(=O)CNC(=O)[C@H](Cc1ccccc1)NC(=O)[C@H](CC(N)=O)NC(=O)[C@@H]1CCCN1C(=O)[C@H](CO)NC(=O)[C@H](CO)NC(=O)[C@H](Cc1c[nH]cn1)NC(=O)[C@H](CCCNC(=N)N)NC(=O)[C@H](CC(C)C)NC(=O)[C@H](Cc1ccccc1)NC(=O)[C@H](Cc1c[nH]cn1)NC(=O)[C@H](C)NC(=O)[C@H](CC(C)C)NC(=O)[C@H](CCCNC(=N)N)NC(=O)[C@H](CCC(N)=O)NC(=O)[C@@H](NC(=O)[C@H](C)NC(=O)[C@@H]1CSSC[C@H](NC(=O)[C@@H](N)CCCCNC(=O)CC[C@H](NC(=O)CCCCCCCCCCCCCCCCCCC(=O)O)C(=O)O)C(=O)N[C@@H](CC(N)=O)C(=O)N[C@@H]([C@@H](C)O)C(=O)N[C@@H](C)C(=O)N[C@@H]([C@@H](C)O)C(=O)N1)[C@@H](C)O)C(=O)N1CCC[C@H]1C(=O)N[C@@H](CO)C(=O)N[C@@H](CO)C(=O)N[C@H](C(=O)N[C@@H](CC(N)=O)C(=O)N[C@H](C(=O)NCC(=O)N1CCC[C@H]1C(=O)N[C@@H](CC(N)=O)C(=O)N[C@H](C(=O)N[C@@H](Cc1ccc(O)cc1)C(N)=O)[C@@H](C)O)C(C)C)[C@@H](C)O [Example 67] (H-K([γGlu-C20 diacid])CNTATCATQRLAHFLRHSSPNFGAIPSSTNVGPNTY-NH2; disulfide 2-7 (inferred); N-terminus assumed) | 47% | 0% | 14.7 nM | ≥ 200 µM | ≥ 200 µM | ≥ 200 µM | ≥ 200 µM | 178 µM (≈ 786 µg/mL) | ≥ 200 µM | ≥ 200 µM | ≥ 200 µM |
| CC[C@H](C)[C@H](NC(=O)[C@H](C)NC(=O)CNC(=O)[C@H](Cc1ccccc1)NC(=O)[C@H](CC(N)=O)NC(=O)[C@@H]1CCCN1C(=O)[C@H](CO)NC(=O)[C@H](CO)NC(=O)[C@H](Cc1c[nH]cn1)NC(=O)[C@H](CCCNC(=N)N)NC(=O)[C@H](CC(C)C)NC(=O)[C@H](Cc1ccccc1)NC(=O)[C@H](Cc1c[nH]cn1)NC(=O)[C@H](C)NC(=O)[C@H](CC(C)C)NC(=O)[C@H](CCCNC(=N)N)NC(=O)[C@H](CCC(N)=O)NC(=O)[C@@H](NC(=O)[C@H](C)NC(=O)[C@@H]1CSSC[C@H](NC(=O)[C@@H](N)CCCCNC(=O)COCCOCCNC(=O)CC[C@H](NC(=O)CCCCCCCCCCCCCCCCCCC(=O)O)C(=O)O)C(=O)N[C@@H](CC(N)=O)C(=O)N[C@@H]([C@@H](C)O)C(=O)N[C@@H](C)C(=O)N[C@@H]([C@@H](C)O)C(=O)N1)[C@@H](C)O)C(=O)N1CCC[C@H]1C(=O)N[C@@H](CO)C(=O)N[C@@H](CO)C(=O)N[C@H](C(=O)N[C@@H](CC(N)=O)C(=O)N[C@H](C(=O)NCC(=O)N1CCC[C@H]1C(=O)N[C@@H](CC(N)=O)C(=O)N[C@H](C(=O)N[C@@H](Cc1ccc(O)cc1)C(N)=O)[C@@H](C)O)C(C)C)[C@@H](C)O [Example 68] (H-K([AEEA-γGlu-C20 diacid])CNTATCATQRLAHFLRHSSPNFGAIPSSTNVGPNTY-NH2; disulfide 2-7) | 33% | 0% | 28.5 nM | ≥ 200 µM | 193 µM (≈ 880 µg/mL) | ≥ 200 µM | ≥ 200 µM | 138 µM (≈ 631 µg/mL) | ≥ 200 µM | ≥ 200 µM | ≥ 200 µM |
